Experimental findings from patent US8871772B2, “Therapeutic methods and compounds” (Ampio Pharmaceuticals, Inc., priority 2008, dated 2014) are described below.

Common to all, as to type: cell-based
The subject of experiment [1] is STTG grade 4 astrocytoma cell line. Nature of the experiment: Proliferation of STTG cancer cells, Promega cell titer assay. Conditions: 20 μM, 96 hours, negative number = increase. The protocol:
(§1) Assays were performed to determine the effect of Cpd. 5 (synthesis described in Example 1) on proliferation of two cancer cell lines. These two cell lines were STTG grade 4 astrocytoma cell line and AU565 breast cancer cell line. Both cell lines were obtained from American Type Culture Collection, Rockville, Md. (ATCC).
(§2) To perform the assays, a 50 mM stock solution of Cpd. 5 was prepared in DMSO and frozen at −80° C. Aliquots of the stock solution were removed and 100 μM dilutions were made in Iscove's modified Dulbecco's medium (IMDM; obtained from ATCC) supplemented with 10% fetal bovine serum (FBS) and penicillin/streptomycin solution. Controls containing equivalent amounts of DMSO to the 100 μM solution were mixed for comparative purposes. 100 μl of the resulting solutions were then added to 96 well culture plates in triplicate and placed in a 37° C. incubator with 5% CO2 to warm.
(§3) At this point, cells were removed from passage flasks using trypsin and counted using trypan blue to establish cell counts/ml and viability. For all experiments, viability of cells was greater than 95%. Solutions of 4,000 cells/100 μl were prepared in the medium from above and 100 μl of the solutions were added to each well of the plates. The plates were placed back in the incubator and incubated with the compounds for 96 hours.
(§4) Following incubation, cell proliferation was assayed by adding 20 μl Promega cell titer aqueous one reagent to each well. […] The plates were incubated at 37° C. for an additional 4-18 hours to allow the colorimetric assay to develop, and the OD of each well was determined in a microplate reader using a 530 nm filter. The OD of wells containing cell titer reagent in culture medium with no cells was subtracted from the OD of all experimental readings.
(§5) The % decrease of the total cell titer signal was determined using the following formula. […] The p values were calculated versus diluent controls.

Experiment [2] relates to U-118 metastatic astrocytoma cell line. Briefly: Proliferation of U-118 cancer cells, Promega cell titer assay. How it is done:
Assays were performed to determine the effect of Cpd. 5 on proliferation of an additional cancer cell line. This cell line was the U-118 metastatic astrocytoma cell line. It was obtained from ATCC.
To perform the assays, a 50 mM stock solution of Cpd. 5 was prepared in DMSO and frozen at −80° C. […] Controls containing equivalent amounts of DMSO to the 300 μM solution were mixed for comparative purposes. 100 μl of the resulting solutions were then added to 96 well culture plates in triplicate and placed in a 37° C. incubator with 5% CO2 to warm.
Cells were removed from passage flasks using trypsin and ethylenediaminetetracetic acid (EDTA) and counted using trypan blue to establish cell counts/ml and viability. For all experiments, viability of cells was greater than 95%. Solutions of 4,000 cells/100 μl were prepared in the medium from above, and 100 μl of the solutions were added to each well of the plates. The plates were placed back in the incubator and incubated with the compounds for 96 hours.
Following incubation, cell proliferation was assayed by adding 20 μl Promega cell titer aqueous one reagent to each well. Promega cell titer reagent is a solution containing a tetrazolium dye that is reduced by living cells to a formazan dye, and this reduction is proportional to the number of living cells present in the well. The plates were incubated at 37° C. for an additional 4 hours to allow the colorimetric assay to develop, and the OD of each well was determined in a microplate reader using a 530 nm filter. The OD of wells containing cell titer reagent in culture medium with no cells was subtracted from the OD of all experimental readings.
The % decrease of the total cell titer signal was determined using the following formula. ((Diluent OD−Experimental OD)/Diluent OD))×100. Data are presented in Table 5 as mean % decrease of cell titer signal of three separate experiments, plus or minus standard deviation. In the mean % decrease column, a positive number means a decrease in cell titer signal, while a negative number means an increase in cell titer signal. The p values were calculated versus diluent controls.
The above experiment was repeated using the U-118 cells at 3000 cells/well.

The subject of experiment [3] is AU565 breast cancer cell line. Nature of the experiment: Proliferation of AU565 cancer cells, Promega cell titer assay. The following applies: AU565, 20 μM, 96 hours; negative number = increase. How it is done: as §1, §2, §3, §4, §5

With `O=c1cc(N2CCNCC2)oc2c(-c3ccccc3)cccc12` [LY303511, reference compound], the “MEAN % DECREASE of cell titer signal” value in experiment [1] is on record as −4.74%; in experiment [2] (U-118, 3000 cells/well, 40 μM final) it was 0.41%; in experiment [2] (U-118, 4,000 cells/well, 20 μM final, 96 hours), −25.93%; in experiment [3], −2.34%.
